# Measurements as given in PubChem BioAssay (NCI).
# Where “and” joins values, the source holds several entries; their conditions need not be identical. Identical values can stand only once.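 How tested: cells in 96-well plates exposed to compound for 48 hours at five concentrations. The concentration for 50% growth inhibition is given as GI50. At the TGI there is no net growth.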
# Legend:
# Experiment in all cases: inhibition of tumour cell growth, NCI panel, 48 h
# [1] = tested on: MDA-MB-468 breast
# [2] = tested on: RXF 393 renal
# [3] = tested on: HOP-62 NSCLC
# [4] = tested on: TK-10 renal
# [5] = tested on: HCT-116 colon
# [6] = tested on: CAKI-1 renal
# [7] = tested on: MCF7 breast
# [8] = tested on: EKVX NSCLC
# [9] = tested on: A549 NSCLC
# [10] = tested on: K-562 leukemia
# [11] = tested on: BT-549 breast
# [12] = tested on: HOP-92 NSCLC
# [13] = tested on: NCI-H522 lung
# [14] = tested on: UACC-62 melanoma
# [15] = tested on: SF-268 CNS
# [16] = tested on: NCI-H460 lung
# [17] = tested on: OVCAR-3 ovarian
# [18] = tested on: OVCAR-4 ovarian
# [19] = tested on: NCI-H23 lung
# [20] = tested on: 786-0 renal
# [21] = tested on: M14 melanoma
# [22] = tested on: HL-60(TB) leukemia
# [23] = tested on: SK-MEL-28 melanoma
# [24] = tested on: T-47D breast
# [25] = tested on: HCC-2998 colon
# [26] = tested on: SW-620 colon
# [27] = tested on: SF-539 CNS
# [28] = tested on: SN12C renal
# [29] = tested on: HCT-15 colon
# [30] = tested on: SNB-19 CNS
# [31] = tested on: SK-OV-3 ovarian
# [32] = tested on: HT29 colon
# [33] = tested on: MOLT-4 leukemia
# [34] = tested on: A498 renal
# [35] = tested on: OVCAR-8 ovarian
# [36] = tested on: HS 578T breast
# [37] = tested on: KM12 colon
# [38] = tested on: COLO 205 colon
# [39] = tested on: DU-145 prostate
# [40] = tested on: SF-295 CNS
# [41] = tested on: PC-3 prostate
# [42] = tested on: MDA-MB-435
# [43] = tested on: SR leukemia
# [44] = tested on: ACHN renal
# [45] = tested on: NCI-H226 lung
# [46] = tested on: SK-MEL-2 melanoma
# [47] = tested on: OVCAR-5 ovarian
# [48] = tested on: SK-MEL-5 melanoma
# [49] = tested on: UACC-257 melanoma
# [50] = tested on: MALME-3M melanoma
# [51] = tested on: MDA-MB-231 breast
# [52] = tested on: UO-31 renal
# [53] = tested on: IGROV1 ovarian
# [54] = tested on: U251 CNS
compound,measurement,setting,value
c1ccc(-c2nc(-c3ccccn3)nc(-c3ccccn3)n2)nc1,GI50,[1],30.4 µM
same,TGI,[1],99.1 µM
CCOc1ccccc1CCN=C1NC(=O)/C(=C/c2ccc3ncccc3c2)S1,GI50,[1],1.16 µM
same,TGI,[1],> 16.9 µM
O=C(O)c1nc(NCc2nc3cc(Cl)ccc3o2)n[nH]1,GI50,[1],> 100 µM
same,TGI,[1],> 100 µM
CN1CCC(CNc2cc(C3(C(=O)Nc4cc(C(=O)Nc5ccc(Cl)c(C(F)(F)F)c5)ccc4F)CC3)ncn2)CC1,GI50,[1],1.83 µM
same,TGI,[1],4.41 µM
Cc1ccc2cnc(N)c(C#Cc3cc(C(=O)Nc4ccc(CN5CCN(C)CC5)c(C(F)(F)F)c4)cnc3C)c2c1,GI50,[1],0.932 µM
same,TGI,[1],2.08 µM
O=C1/C(=C/c2ccc([N+](=O)[O-])cc2)CN(C(=O)CCN2CCC(=NO)CC2)C/C1=C\c1ccc([N+](=O)[O-])cc1,GI50,[1],1.06 µM
same,TGI,[1],3.61 µM
Cc1c2cnccc2c(C)c2c1c1cc(C#N)ccc1n2C,GI50,[1],0.228 µM
same,TGI,[1],0.741 µM
O=C1OCC2=C1C(c1cccc(F)c1)c1cc3c(cc1N2CCO)OCO3 (stereo not given),GI50,[1],1.12 µM
same,TGI,[1],> 50 µM
O=S(=O)(Nc1ccc(Br)cc1)c1ccc(-c2cnc(C3CC3)o2)cc1,GI50,[1],1.13 µM
same,TGI,[1],7.28 µM
O=C(Nc1cccc(Cl)c1)Nn1cnnc1,GI50,[1],> 50 µM
same,TGI,[1],> 50 µM
Nc1nc2ccc(-c3nc4ccc5[nH]ncc5c4c4c3CCC4)cc2s1,GI50,[1],0.182 µM
same,TGI,[1],4.36 µM
N#C[Se]Cc1cc(-c2ccccc2)n(-c2ccc(S(N)(=O)=O)cc2)n1,GI50,[1],1.59 µM
same,TGI,[1],3.47 µM
CC1=C2C(=C[C@@](C)(CO)[C@@H]2OC(=O)N(C)CCN(C)C(=O)OC(C)(C)C)C(=O)[C@](C)(O)C12CC2,GI50,[1],1.1 µM
same,TGI,[1],3.8 µM
CCc1c2c(nc3ccc(OCc4ccc(B(O)O)cc4)cc13)-c1cc3c(c(=O)n1C2)COC(=O)[C@]3(O)CC,GI50,[1],< 0.01 µM
same,TGI,[1],0.0355 µM
CC1=C([Se]CC(OC(=O)CC[Se]c2ccccc2)C(=O)NC(C)(C)C)C(=O)c2ccccc2C1=O (stereo not given),GI50,[1],0.509 µM
same,TGI,[1],2.06 µM
CCN1C(=O)N(CC)C2C1NN=c1s/c(=C\c3ccc(Cl)cc3Cl)c(=O)n12 (stereo not given),GI50,[1],0.0417 µM
same,TGI,[1],19.4 µM
Cn1ncc(-c2ccc3c(=O)[nH]nc(CN)c3c2)c1-c1c(F)c(Cl)cc(OC2CC2)c1C#N,GI50,[1],11.7 µM and 10.2 µM
same,TGI,[1],24.8 µM and 22.5 µM
CCOC(=O)Oc1c(OC)cc(C(=O)c2ccc(OC)c(O)c2OC)cc1OC,GI50,[1],2.65 µM
same,TGI,[1],> 100 µM
COc1cc(C)ccc1C(=O)c1ccc(C)cc1OC,GI50,[1],1.39 µM
same,TGI,[1],> 100 µM
COc1ccc2c(c1)C(=O)/C(=C/c1cccc(OCC(=O)c3ccccc3)c1)CC2,GI50,[1],2.68 µM
same,TGI,[1],74.2 µM
CCCCN(CCCC)Cc1cc(Nc2ccnc3cc(Cl)ccc23)ccc1O,GI50,[1],4.94 µM
same,TGI,[1],> 100 µM
C=C1CCC2C3(C)COC(C)(C)OC3CCC2(C)C1C/C=C1/C(=O)OCC1OC(C)=O (stereo not given),GI50,[1],1.44 µM
same,TGI,[1],3.06 µM
CCSC1=NC2C(N(CC)C(=O)N2CC)N1/N=C/C=C/c1ccccc1[N+](=O)[O-] (stereo not given),GI50,[1],0.1 µM
Cc1cc(=O)oc2cc(OCCOc3ccc(/C=C/C(=O)Nc4ccccc4N)cc3)ccc12,GI50,[2],3.64 µM
same,TGI,[2],> 100 µM
same,GI50,[3],8.17 µM
same,TGI,[3],> 100 µM
same,GI50,[4],9.25 µM
same,TGI,[4],> 100 µM
same,GI50,[5],3.31 µM
same,TGI,[5],> 100 µM
same,GI50,[6],4.58 µM
same,TGI,[6],> 100 µM
same,GI50,[7],1.27 µM
same,TGI,[7],> 100 µM
same,GI50,[8],6.5 µM
same,TGI,[8],> 100 µM
same,GI50,[9],4.27 µM
same,TGI,[9],> 100 µM
same,GI50,[10],3.01 µM
same,TGI,[10],> 100 µM
same,GI50,[1],3.41 µM
same,TGI,[1],96.2 µM
same,GI50,[11],1.2 µM
same,TGI,[11],4.93 µM
same,GI50,[12],3.45 µM
same,TGI,[12],> 100 µM
same,GI50,[13],4 µM
same,TGI,[13],> 100 µM
same,GI50,[14],3.74 µM
same,TGI,[14],> 100 µM
same,GI50,[15],4.43 µM
same,TGI,[15],> 100 µM
same,GI50,[16],2.74 µM
same,TGI,[16],> 100 µM
same,GI50,[17],4.19 µM
same,TGI,[17],> 100 µM
same,GI50,[18],4.86 µM
same,TGI,[18],> 100 µM
same,GI50,[19],6.05 µM
same,TGI,[19],> 100 µM
same,GI50,[20],3.75 µM
same,TGI,[20],> 100 µM
same,GI50,[21],9.87 µM
same,TGI,[21],> 100 µM
same,GI50,[22],0.369 µM
same,TGI,[22],2.62 µM
same,GI50,[23],5.2 µM
same,TGI,[23],> 100 µM
same,GI50,[24],1.59 µM
same,TGI,[24],> 100 µM
same,GI50,[25],5.47 µM
same,TGI,[25],> 100 µM
same,GI50,[26],4.16 µM
same,TGI,[26],> 100 µM
same,GI50,[27],2.58 µM
same,TGI,[27],> 100 µM
same,GI50,[28],2.77 µM
same,TGI,[28],> 100 µM
same,GI50,[29],3.17 µM
same,TGI,[29],> 100 µM
same,GI50,[30],4.42 µM
same,TGI,[30],> 100 µM
same,GI50,[31],8.39 µM
same,TGI,[31],> 100 µM
same,GI50,[32],4.45 µM
same,TGI,[32],> 100 µM
same,GI50,[33],0.294 µM
same,TGI,[33],1.34 µM
same,GI50,[34],2.74 µM
same,TGI,[34],9.36 µM
same,GI50,[35],3.99 µM
same,TGI,[35],> 100 µM
same,GI50,[36],> 100 µM
same,TGI,[36],> 100 µM
same,GI50,[37],5.12 µM
same,TGI,[37],> 100 µM
same,GI50,[38],3.68 µM
same,TGI,[38],> 100 µM
same,GI50,[39],6.8 µM
same,TGI,[39],> 100 µM
same,GI50,[40],4.8 µM
same,TGI,[40],> 100 µM
same,GI50,[41],3.1 µM
same,TGI,[41],> 100 µM
same,GI50,[42],6.69 µM
same,TGI,[42],> 100 µM
same,GI50,[43],5.66 µM
same,TGI,[43],> 100 µM
same,GI50,[44],5.52 µM
same,TGI,[44],> 100 µM
same,GI50,[45],4.09 µM
same,TGI,[45],> 100 µM
same,GI50,[46],5.81 µM
same,TGI,[46],> 100 µM
same,GI50,[47],6.43 µM
same,TGI,[47],> 100 µM
same,GI50,[48],1.48 µM
same,TGI,[48],3.2 µM
same,GI50,[49],2.87 µM
same,TGI,[49],> 100 µM
same,GI50,[50],3.89 µM
same,TGI,[50],> 100 µM
same,GI50,[51],2.55 µM
same,TGI,[51],35.1 µM
same,GI50,[52],1.31 µM
same,TGI,[52],> 100 µM
same,GI50,[53],2.08 µM
same,TGI,[53],> 100 µM
same,GI50,[54],5.59 µM
same,TGI,[54],> 100 µM
Nc1ncn([C@@H]2S[C@H](CO)[C@@H](O)[C@@H]2F)c(=O)n1,GI50,[1],> 100 µM
same,TGI,[1],> 100 µM
O=C(NCC1CC1)c1ccc(-c2cccc(C(=O)NC3CC3)c2)cc1,GI50,[1],> 25 µM
same,TGI,[1],> 25 µM
CC(CO)Nc1cc(-c2[nH]c3cccnc3c2-c2ccc(F)cc2)ccn1 (stereo not given),GI50,[1],6.74 µM
same,TGI,[1],> 25 µM
COc1cccc(-c2nc3cc(NC(=O)c4ccc(Cl)c(C#N)c4)ccc3o2)c1,GI50,[1],1.6 µM
same,TGI,[1],3.44 µM
CCCN1C(=O)NC(=O)C(CC)(N2C(=O)c3c(F)c(F)c(F)c(F)c3C2=O)C1=O (stereo not given),GI50,[1],1.54 µM
same,TGI,[1],3.93 µM
COc1cc(/C=C/C(=O)/C=C/c2cc(OC)c3c(c2)OCO3)cc2c1OCO2,GI50,[1],3.46 µM
same,TGI,[1],28.3 µM
